The results in this text go back to patent US20030100515A1, “Benzophenone glycopyranosides, preparation and therapeutic use” (priority 1999, published 2003).

Molecules are shown by their SMILES. Marks after values point to notes of the source that are not given here.

The first test relates to female mice of the C57BL/6J strain. Description: Lowering of serum cholesterol level in mice subjected to a fatty diet (single oral dose). As to conditions: total serum cholesterol; female C57BL/6J mice on fatty diet (1.25% cholesterol, 0.5% cholic acid); single dose 10 mg/kg by tubage. The test is classed as in vivo. Here is the method: The antiatheromatous activity of the compounds according to the invention was evaluated as a function of their ability to lower the serum cholesterol level in mice subjected to a fatty diet. […] This correlation affords a test which is more rapid than direct experiments on the atheromatous plaque, which require a lengthy treatment of the animals and an expensive histological study of the walls of the aortic arch.
The test used consists in administering a single dose of the compound to female mice of the C57BL/6J strain. The protocol is as follows: On the first day (D0), the mice are fasted from 9 am to 5 pm, a blood sample being taken at 2 pm. At 5 pm, a given amount of food (a fatty diet comprising 1.25% of cholesterol and 0.5% of cholic acid) is distributed. On the second day (D1), the food leftovers are weighed at 9 am and the mice are fasted from 9 am to 2 pm. A blood sample is taken at 2 pm. For the treated groups of mice, the compound is administered at 9 am on the second day (D1) by tubage in the form of a suspension in a 3% aqueous solution of gum. The control groups receive only the aqueous gum.
[…] The total serum cholesterol is assayed and the results are expressed as the percentage inhibition of the increase in cholesterolemia compared with the control group.
For the molecule `N#Cc1ccc(C(=O)c2ccc(O[C@@H]3OC[C@H](O)[C@H](O)[C@H]3O)cc2)cc1` [Example 19, [4-(4-Cyanobenzoyl)phenyl] α-L-arabinopyranoside], the “Activity (%): percentage inhibition of the increase in cholesterolemia compared with the control group” value was −31* %. Consider `CC(=O)O[C@@H]1[C@@H](OC(C)=O)[C@H](Oc2ccc(C(=O)c3ccc(C#N)cc3)cc2)OC[C@@H]1OC(C)=O` [Example 18, [4-(4-Cyanobenzoyl)phenyl] 2,3,4-tri-O-acetyl-α-L-arabinopyranoside], for which the “Activity (%): percentage inhibition of the increase in cholesterolemia compared with the control group” value is reported as −2* %.

The same test, now with this note: total serum cholesterol; female C57BL/6J mice on fatty diet (1.25% cholesterol, 0.5% cholic acid); single dose 100 mg/kg by tubage.
On to `N#Cc1ccc(C(=O)c2ccc(O[C@@H]3OC[C@@H](O)[C@H](O)[C@@H]3O)cc2)cc1` [Example 3, [4-(4-Cyanobenzoyl)phenyl] β-D-lyxopyranoside], for which the “Activity (%): percentage inhibition of the increase in cholesterolemia compared with the control group” value is −28%. For `N#Cc1ccc(C(=O)c2ccc(O[C@@H]3O[C@H](CO)[C@H](O)[C@H](O)[C@H]3O)cc2)cc1` [Example 7, [4-(4-Cyanobenzoyl)phenyl] β-D-galactopyranoside], the “Activity (%): percentage inhibition of the increase in cholesterolemia compared with the control group” value is on record as −32%. On to `CC(=O)O[C@@H]1[C@@H](OC(C)=O)[C@@H](Oc2ccc(C(=O)c3ccc(C#N)cc3)cc2)OC[C@@H]1OC(C)=O` [Example 10, [4-(4-Cyanobenzoyl)phenyl] 2,3,4-tri-O-acetyl-β-L-arabinopyranoside], for which the “Activity (%): percentage inhibition of the increase in cholesterolemia compared with the control group” value is −22%. As to `CC(=O)O[C@@H]1[C@@H](OC(C)=O)[C@H](C)O[C@H](Oc2ccc(C(=O)c3ccc(C#N)cc3)cc2)[C@@H]1OC(C)=O` [Example 16, [4-(4-Cyanobenzoyl)phenyl] 2,3,4-tri-O-acetyl-β-L-rhamnopyranoside], the “Activity (%): percentage inhibition of the increase in cholesterolemia compared with the control group” value is reported as −37%. Still for that read-out and setting: under `CC(=O)OC[C@H]1O[C@@H](Oc2ccc(C(=O)c3ccc(C#N)cc3)cc2)[C@@H](OC(C)=O)[C@@H](OC(C)=O)[C@@H]1OC(C)=O` [Example 8, [4-(4-Cyanobenzoyl)phenyl] 2,3,4,6-tetra-O-acetyl-β-D-mannopyranoside] stands −17%; under `CC(=O)O[C@@H]1[C@H](Oc2ccc(C(=O)c3ccc(C#N)cc3)cc2)OC[C@H](OC(C)=O)[C@H]1OC(C)=O` [Example 14, [4-(4-Cyanobenzoyl)phenyl] 2,3,4-tri-O-acetyl-α-L-xylopyranoside], −36%. Regarding `CC(=O)O[C@@H]1[C@H](Oc2ccc(C(=O)c3ccc(C#N)cc3)cc2)OC[C@@H](OC(C)=O)[C@H]1OC(C)=O` [Example 1, [4-(4-Cyanobenzoyl)phenyl] 2,3,4-tri-O-acetyl-β-D-arabinopyranoside], the “Activity (%): percentage inhibition of the increase in cholesterolemia compared with the control group” value was −25%. On to `N#Cc1ccc(C(=O)c2ccc(O[C@H]3OC[C@H](O)[C@@H](O)[C@@H]3O)cc2)cc1` [Example 13, [4-(4-Cyanobenzoyl)phenyl] β-L-xylopyranoside], for which the “Activity (%): percentage inhibition of the increase in cholesterolemia compared with the control group” value is on record as −45%. For the molecule `N#Cc1ccc(C(=O)c2ccc(O[C@@H]3OC[C@H](O)[C@@H](O)[C@@H]3O)cc2)cc1` [Example 15, [4-(4-Cyanobenzoyl)phenyl] α-L-xylopyranoside], the “Activity (%): percentage inhibition of the increase in cholesterolemia compared with the control group” value is reported as −32%. Take `N#Cc1ccc(C(=O)c2ccc(O[C@@H]3O[C@H](CO)[C@@H](O)[C@H](O)[C@@H]3O)cc2)cc1` [Example 9, [4-(4-Cyanobenzoyl)phenyl] β-D-mannopyranoside]: the “Activity (%): percentage inhibition of the increase in cholesterolemia compared with the control group” value is reported as −39%.

For the molecule `CC(=O)O[C@@H]1[C@@H](Oc2ccc(C(=O)c3ccc(C#N)cc3)cc2)OC[C@H](OC(C)=O)[C@H]1OC(C)=O` [Example 12, [4-(4-Cyanobenzoyl)phenyl] 2,3,4-tri-O-acetyl-β-L-xylopyranoside], the “Activity (%): percentage inhibition of the increase in cholesterolemia compared with the control group” value is −45%.

Turning to `N#Cc1ccc(C(=O)c2ccc(O[C@@H]3OC[C@@H](O)[C@@H](O)[C@H]3O)cc2)cc1` [Example 5, [4-(4-Cyanobenzoyl)phenyl] β-D-ribopyranoside], the “Activity (%): percentage inhibition of the increase in cholesterolemia compared with the control group” value was −36%. As for `CC(=O)O[C@H]1[C@H](Oc2ccc(C(=O)c3ccc(C#N)cc3)cc2)OC[C@@H](OC(C)=O)[C@H]1OC(C)=O` [Example 4, [4-(4-Cyanobenzoyl)phenyl] 2,3,4-tri-O-acetyl-β-D-ribopyranoside], the “Activity (%): percentage inhibition of the increase in cholesterolemia compared with the control group” value is listed as −23%. Same read-out and setting: with `N#Cc1ccc(C(=O)c2ccc(O[C@H]3OC[C@H](O)[C@H](O)[C@H]3O)cc2)cc1` [Example 11, [4-(4-Cyanobenzoyl)phenyl] β-L-arabinopyranoside] the figure was −31%; with `N#Cc1ccc(C(=O)c2ccc(O[C@@H]3OC[C@@H](O)[C@@H](O)[C@@H]3O)cc2)cc1` [Example 2, [4-(4-Cyanobenzoyl)phenyl] β-D-arabinopyranoside], −29%.

On to `C[C@@H]1O[C@H](Oc2ccc(C(=O)c3ccc(C#N)cc3)cc2)[C@H](O)[C@H](O)[C@H]1O` [Example 17, [4-(4-Cyanobenzoyl)phenyl] β-L-rhamnopyranoside], for which the “Activity (%): percentage inhibition of the increase in cholesterolemia compared with the control group” value is recorded as −50%. Turning to `CC(=O)OC[C@H]1O[C@@H](Oc2ccc(C(=O)c3ccc(C#N)cc3)cc2)[C@H](OC(C)=O)[C@@H](OC(C)=O)[C@H]1OC(C)=O` [Example 6, [4-(4-Cyanobenzoyl)phenyl] 2,3,4,6-tetra-O-acetyl-β-D-galactopyranoside], the “Activity (%): percentage inhibition of the increase in cholesterolemia compared with the control group” value is reported as −33%.
